Test results taken from patent publication US9434714B2, “Pyrimidine imidazole amines as modulators of kinase activity” (Merck Patent GmbH, priority 2014, dated 2016).

Legend:
P70S6K (T412E mutant) = molecular target: T1, P70S6K (T412E mutant) (Homo sapiens, UniProt P23443, T412E); test: P70S6K enzyme assay; type: biochemical; conditions: 24 μM ATP, 90 min at 25° C., mobility shift (Caliper)
T1 construct: purchased Millipore
Description: P70S6K inhibitor compounds were diluted and plated in 96 well plates. A reaction mixture including the following components was then added to the compound plate to initiate the enzyme reaction; P70S6K (3 nM, T412E mutant, Millipore) was mixed with 24 μM ATP in an assay buffer containing 100 mM Hepes (pH 7.5), 5 mM MgCl2, 1 mM DTT, 0.015% Brij and 1 μM of the substrate peptide FITC-AHA-AKRRRLSSLRA-OH (derived from the S6 ribosomal protein sequence, FITC=fluorescein isothiocyanate, AHA=6-aminohexanoic acid). The reaction was incubated for 90 min at 25° C., before the addition of 10 mM EDTA to stop the reaction. The proportion of substrate and product (phosphorylated) peptide was analysed on a Caliper Life Sciences Lab Chip 3000, using a pressure of −1.4 psi, and upstream and downstream voltages of −3000 and −700 respectively. Product peaks were resolved before substrate peaks on the resulting chromatograms.

His-AKT (Full Length) = molecular target: T2, His-AKT (Full Length) (Homo sapiens, UniProt P31749); test: AKT enzyme assay; type: biochemical; conditions: 160 uM ATP, 90 min at 25 C, off-chip mobility shift (Caliper)
T2 construct: His-AKT (Full Length); His; purchased Invitrogen P2999
T2 sequence (P31749 whole entry): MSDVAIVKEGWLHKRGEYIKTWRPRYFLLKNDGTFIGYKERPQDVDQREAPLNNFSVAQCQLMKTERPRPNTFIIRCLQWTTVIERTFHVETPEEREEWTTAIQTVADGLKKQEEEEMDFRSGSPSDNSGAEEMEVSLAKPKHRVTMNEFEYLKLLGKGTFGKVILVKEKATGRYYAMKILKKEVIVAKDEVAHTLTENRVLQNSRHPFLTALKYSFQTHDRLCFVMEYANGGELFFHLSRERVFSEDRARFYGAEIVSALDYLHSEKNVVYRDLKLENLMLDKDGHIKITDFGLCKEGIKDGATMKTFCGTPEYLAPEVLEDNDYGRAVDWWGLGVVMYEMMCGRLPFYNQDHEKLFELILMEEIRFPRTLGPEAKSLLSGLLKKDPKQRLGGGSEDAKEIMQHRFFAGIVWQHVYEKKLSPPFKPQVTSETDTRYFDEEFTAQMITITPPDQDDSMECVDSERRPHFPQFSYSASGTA
Description: A TTP Mosquito liquid handling instrument was used to place 125 nl of the appropriate concentration of inhibitor in 100% DMSO (for a dose response curve calculation) into each well of a 384-well plate. To this reaction components were added to a final volume of 12.5 μl: • 0.1 ng/μ1 His-AKT (Full Length), (Invitrogen, Part # P2999, Lot #641228C). • 160 uM ATP (Fluka, 02055) • 1 mM DTT (Sigma, D0632) • 1 mM MgCl2 (Sigma, M1028) • 1 μM substrate peptide (sequence FITC-AHA-GRPRTSSFAEG-NH2), synthesized by Tufts Peptide Synthesis service. • 100 mM HEPES pH 7.5 (Calbiochem, 391338) • 0.015% Brij-35 (Sigma, B4184)
The reaction was incubated for 90 min at 25 C, and then stopped by the addition of 70 μl of Stop buffer (100 mM HEPES pH 7.5, 0.015% Brij-35, 10 mM EDTA (Sigma, E7889)).
The plate was read on a Caliper LC 3000 in an Off-Chip mobility shift assay format, using the following parameters for a 12-sipper chip: screening pressure—2.3 psi, upstream voltage—500, and downstream voltage—3000. These conditions cause unphosphorylated substrate and phosphorylated product peptide to resolve as separate peaks allowing direct measurement of percentage of conversion of substrate to product. The percent conversion was plotted against concentration of inhibitor to produce a sigmoidal dose response curve, from which an IC50 was calculated.

T1 sequence (P23443 whole entry T412E): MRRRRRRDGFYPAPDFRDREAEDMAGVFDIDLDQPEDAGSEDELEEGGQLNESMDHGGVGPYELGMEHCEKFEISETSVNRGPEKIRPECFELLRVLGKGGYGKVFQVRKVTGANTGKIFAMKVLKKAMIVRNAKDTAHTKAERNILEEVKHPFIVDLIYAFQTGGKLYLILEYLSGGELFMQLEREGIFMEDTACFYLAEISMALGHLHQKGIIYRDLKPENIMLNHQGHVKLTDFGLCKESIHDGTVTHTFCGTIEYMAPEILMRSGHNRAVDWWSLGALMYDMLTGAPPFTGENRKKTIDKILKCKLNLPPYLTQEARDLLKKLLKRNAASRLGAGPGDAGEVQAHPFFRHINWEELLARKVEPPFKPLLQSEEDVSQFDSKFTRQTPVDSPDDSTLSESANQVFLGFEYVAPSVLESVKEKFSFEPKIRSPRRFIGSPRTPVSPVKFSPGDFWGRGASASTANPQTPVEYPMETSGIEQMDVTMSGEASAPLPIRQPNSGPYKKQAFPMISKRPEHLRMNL

Row | Compound | IC50 (P70S6K (T412E mutant)) [nM] | IC50 (His-AKT (Full Length)) [nM]
1 | CCc1c(N)ncnc1N1CCC(c2nc(-c3ccc(F)c(C)c3)cn2CCN2CCC2)CC1 [Compound 1, 6-{4-[1-(2-Azetidin-1-yl-ethyl)-4-(4-fluoro-3-methyl-phenyl)-1H-imidazol-2-yl]-piperidin-1-yl}-5-ethyl-pyrimidin-4-ylamine] | < 3 | 3 to 15
2 | CC(C)c1cc(-c2cn(CCN3CCC3)c(C3CCN(c4ncnc(N)c4C=O)CC3)n2)ccn1 [Compound 15, 4-Amino-6-{4-[1-(2-azetidin-1-yl-ethyl)-4-(2-isopropyl-pyridin-4-yl)-1H-imidazol-2-yl]-piperidin-1-yl}-pyrimidine-5-carbaldehyde] | < 3 | 3 to 15
3 | Cc1cc(-c2cn(CCN3CCC3)c(C3CCN(c4ncnc(N)c4C(C)C)CC3)n2)ccc1F [Compound 4, 6-{4-[1-(2-Azetidin-1-yl-ethyl)-4-(4-fluoro-3-methyl-phenyl)-1H-imidazol-2-yl]-piperidin-1-yl}-5-isopropyl-pyrimidin-4-ylamine] | 3 to 15 | 3 to 15
4 | CC(C)c1cc(-c2cn(CCN3CCC3)c(C3CCN(c4ncnc(N)c4C4CC4)CC3)n2)ccn1 [Compound 17, 6-{4-[1-(2-Azetidin-1-yl-ethyl)-4-(2-isopropyl-pyridin-4-yl)-1H-imidazol-2-yl]-piperidin-1-yl}-5-cyclopropyl-pyrimidin-4-ylamine] | 3 to 15 | 3 to 15

The next lines start with the values.

Row | IC50 (P70S6K (T412E mutant)) [nM] | IC50 (His-AKT (Full Length)) [nM] | Compound
5 | 3 to 15 | 3 to 15 | CCNCCn1cc(-c2ccc(F)c(C(F)(F)F)c2)nc1C1CCN(c2ncnc(N)c2C(C)C)CC1 [Compound 31, 6-{4-[1-(2-Ethylamino-ethyl)-4-(4-fluoro-3-trifluoromethyl-phenyl)-1H-imidazol-2-yl]-piperidin-1-yl}-5-isopropyl-pyrimidin-4-ylamine]
6 | 3 to 15 | 3 to 15 | CC(C)Oc1c(N)ncnc1N1CCC(c2nc(-c3ccnc(C(F)(F)F)c3)cn2CCN(C)C)CC1 [Compound 28]
7 | < 3 | 3 to 15 | CN(C)CCn1cc(-c2ccnc(C(F)(F)F)c2)nc1C1CCN(c2ncnc(N)c2C#N)CC1 [Compound 29]
